Test [1] has as its system BV 2 cells. The experiment in a line: qRT-PCR of proinflammatory cytokine mRNA under hypoxia. Type of test: cell-based, mouse. Particulars: lonidamine 50 μM, 3-BrPA 10 μM; for 116 expression (mRNA) / Tnfa expression (mRNA): hypoxia. The procedure: Next, quantitative reverse transcription polymerase chain reaction assays were performed to examine the mRNA levels of several proinflammatory cytokines in the presence or absence of HK2 inhibitors. […] Chromatin immunoprecipitation assays were carried out to examine endogenous binding of acetylated histones to I11b promoter. The binding of AcH3 and AcH4 to the I11b promoter increased during hypoxia, whereas it could be decreased by pretreatment with lonidamine (FIG. 7F).

The test system of test [2] is BV 2 cells. The experiment in a line: Metabolite profiling: acetyl-coenzyme A accumulation under hypoxia. Type of test: cell-based, mouse. Conditions: lonidamine 50 μM, BrPA 10 μM; hypoxia 6 hours. On the procedure: c) Metabolite profiling: BV2 cells were seeded in a 60 mm culture dish and cultured for 24 hours and then cultured in normoxic or hypoxic conditions for 6 hours. Metabolites were extracted using 1.5 mL of ice-cold 80% methanol. After incubation at −80° C. for 30 minutes, cells were scrapped and centrifuged at 14,000 g for 15 min at 4° C. The upper methanol/water phase were transferred into new tubes and incubated at −80° C. for another 30 minutes. The upper phases were centrifuged and dried under nitrogen gas and dried samples were stored at −80° C. prior to LC-MS analysis.

The subject of test [3] is BV2 microglia cells. Put plainly: Proinflammatory cytokine protein expression under hypoxia. Type of test: cell-based, mouse. Particulars: 2-DG, BV 2 cells under hypoxia. On the procedure:
b) Protein extraction and proinflammatory cytokine protein expression assay: After incubated in 35 mm culture dishes and placed for 24 hours, the cells were subject to hypoxia treatment for indicated time. The total cellular protein was then extracted to detect protein expression of the proinflammatory cytokines TNF-α, IL-1β and IL-6.

In test [4] the test system is BV2 microglia cells. The experiment in a line: Hypoxia-induced microglial activation (morphological changes) in BV2 cells. Type of test: cell-based, mouse. On the procedure:
a) Cell culture: BV2 cells were grown in DMEM containing 10% fetal bovine serum (FBS), placed in 5% CO2, cultured in a 37° C. constant temperature incubator (relative humidity was 95%), and observed under inverted microscope. Passage was performed approximately 2-3 days, and logarithmic growth phase cells were used for formal experiments. The cells in the hypoxic treatment group were placed in the Coy anoxic chamber with 1% 02, 5% CO2, and 94% N2; other conditions were the same as normal culture conditions.
(§1) b) RNA interference: Cells were seeded in a 35 mm culture dish for 24 hours. Short-interfering RNAs (siRNAs) were transfected with RNAiMAX Reagent. Scrambled RNA was used as a control. In total, 50 nM siRNAs were transfected into the cultures, and after 12 hours, the medium was replaced with fresh medium. Cells were then stimulated with hypoxia for 24 hours to detect the expression level of the indicated proteins.
a) Cell culture: BV2 cells were grown in DMEM containing 10% fetal bovine serum (FBS), placed in 5% CO2, cultured in a 37° C. constant temperature incubator (relative humidity was 95%), and observed under inverted microscope. Passage was performed approximately 2-3 days, and logarithmic growth phase cells were used for formal experiments.

Test [5] has as its system primary microglia (pMG). The experiment in a line: Hypoxia-induced microglial activation (morphological changes) in primary microglia. Particulars: lonidamine 50 μM. Type of test: cell-based, mouse. On the procedure: For the isolation and culture of primary microglia, cells were isolated from newborn C57BL/6J mice. Briefly, cerebral cortices devoid of meninges and blood vessels were dissociated from P0-2 mice and digested by 0.125% trypsin at 37° C. for 15 minutes. The digestion was terminated by addition of DMEM containing 10% FBS and isolated single cells were seeded in culture dishes. After the mixed cultures became confluent, microglia were separated from other cell types by slight shaking and purification was identified by the microglial-specific marker CD 11b.

For test [6], the system named is I11b promoter. Put plainly: Chromatin immunoprecipitation (ChIP): acetylated histones at I11b promoter. Type of test: cell-based, mouse. Conditions: pretreatment 1 hour prior to 6 hours hypoxic exposure. The procedure: d) Chromatin immunoprecipitation (ChIP) assay: BV 2 cells were treated with dimethylsulfoxide or lonidamine for 1 hour prior to 6 hours hypoxic exposure. Then, cells were cross-linked with a 1% formaldehyde solution (Sigma, F8775) for 10 minutes at 37° C. Cell lysates were sonicated to generate 100-1000 bp DNA fragments. Samples were diluted, and 10% of the total amount was retained for input. The remaining portions of each sample were pre-cleared, and anti-H3 or anti-H4 antibodies were added; a normal rabbit IgG antibody was simultaneously used as the negative control. The next day, protein G agarose was added and samples were washed after 2 hours of incubation. Cross-links were then reversed by incubation at 65° C. for 4 hours in 0.2 M NaCl. DNAs were extracted from the input and IP samples, and qPCR assays were performed. The […] promoter primer sequences were as follows: [NT] (forward) (SEQ ID NO. 19) and [NT] (reverse) (SEQ ID NO. 20).

The test system of test [7] is primary microglia (pMG). Put plainly: CD 11b expression in hypoxia-stimulated primary microglia. Type of test: cell-based, mouse. Particulars: lonidamine 50 μM, DMSO as solvent. The procedure:
For the isolation and culture of primary microglia, cells were isolated from newborn C57BL/6J mice. Briefly, cerebral cortices devoid of meninges and blood vessels were dissociated from P0-2 mice and digested by 0.125% trypsin at 37° C. for 15 minutes. The digestion was terminated by addition of DMEM containing 10% FBS and isolated single cells were seeded in culture dishes. After the mixed cultures became confluent, microglia were separated from other cell types by slight shaking and purification was identified by the microglial-specific marker CD 11b. b) CD 11b expression detected by Immunofluorescence: BV2 cells were seeded in a laser confocal-specific culture plate, and treated with hypoxia for 24 hours, fixed in 4% paraformaldehyde at room temperature for 20 minutes, and then washed three times with PBST for 5 minutes each time. After washing, CD 11b antibody diluted with DAKO antibody dilution was added and incubated overnight at 4° C. The next day, the samples were incubated with indicated fluorescently labeled secondary antibody at 37° C. for 1 hour.

For test [8], the system named is middle cerebral artery occlusion (MCAo) rats. The experiment in a line: Rat MCAo model, infarct volume by TTC staining. Type of test: in vivo. Particulars: 10 mg/kg two hours after operation; measured 24 hours after reperfusion.
Test [9] concerns BV2 microglia cells. The experiment in a line: CD 11b expression in hypoxia-stimulated BV2 cells. Type of test: cell-based, mouse. Particulars: lonidamine 50 μM, DMSO as solvent. The procedure:
c) CD 11b expression detected by Immunofluorescence: BV2 cells were seeded in a laser confocal-specific culture plate, and treated with hypoxia for 24 hours, fixed in 4% paraformaldehyde at room temperature for 20 minutes, and then washed three times with PBST for 5 minutes each time. After washing, CD 11b antibody diluted with DAKO antibody dilution was added and incubated overnight at 4° C. The next day, the samples were incubated with indicated fluorescently labeled secondary antibody at 37° C. for 1 hour.
as §1
b) CD 11b expression detected by Immunofluorescence: BV2 cells were seeded in a laser confocal-specific culture plate, and treated with hypoxia for 24 hours, fixed in 4% paraformaldehyde at room temperature for 20 minutes, and then washed three times with PBST for 5 minutes each time. After washing, CD 11b antibody diluted with DAKO antibody dilution was added and incubated overnight at 4° C. […]

For the molecule `O=C(O)C(=O)CBr` [3-Br-pyruvate, 3-bromopyruvate], in test [1], the “hypoxia-induced I11b expression at the mRNA level” value was “dramatically inhibited”, the “116 expression (mRNA)” value was “no effect” and the “Tnfa expression (mRNA)” value was “no effect”. Besides, in test [2], the “hypoxia-induced accumulation of acetyl-coenzyme A” value was “remarkably impaired”.

As for `O=CC[C@@H](O)[C@H](O)[C@H](O)CO` [2-deoxyglucose, 2-deoxy-D-glucose], the “production of proinflammation cytokines” value in [3] was “significantly impaired”. Moreover, the “percentage of BV 2 cells with activated morphological changes” value in test [4] (500 μM 2-DG, hypoxia 1% oxygen) is listed as “significantly decreased”.

For the molecule `O=C(O)c1nn(Cc2ccc(Cl)cc2Cl)c2ccccc12` [Lonidamine], the “activated state of pMG cultures during hypoxia” value in test [5] is on record as “markedly inhibited”. Besides, in test [6], the “binding of AcH3 to the I11b promoter during hypoxia” value is listed as “decreased” and the “binding of AcH4 to the I11b promoter during hypoxia” value is reported as “decreased”. For the same molecule, in test [7], the “CD 11b expression, pMG cells (immunofluorescence)” value was “reduction”. In addition, in test [1], the “hypoxia-induced I11b expression at the mRNA level” value is recorded as “dramatically inhibited”, the “116 expression (mRNA)” value is “no effect” and the “Tnfa expression (mRNA)” value was “no effect”. For the same molecule, the infarct size result in test [8] is “significantly reduced”. The “activated state of BV 2 cultures during hypoxia” value in test [4] (lonidamine 50 μM) was “markedly inhibited”. For the same molecule, the “hypoxia-induced accumulation of acetyl-coenzyme A” value in test [2] was “remarkably impaired”. The “CD 11b expression, BV 2 cells (immunofluorescence)” value in [9] was “reduction”.

These data come from US12319750B2, “Hexokinase 2-specific inhibitors for use in acute central nervous system injury” (GUANGZHOU CELLPROTEK PHARMACEUTICAL CO., LTD, priority 2017, dated 2025).
